Results on 28 compounds are retold here after patent US7429596B2, “1H-pyrrolo [2,3-D] pyrimidine derivatives and methods of use thereof” (The Regents of the University of California, priority 2003, dated 2008).

Where two headings read alike, the source gives them in different places.

Data set [1] deals with c-Fyn-wt (Homo sapiens, UniProt P06241). Put plainly: Inhibition of Src family kinase Fyn. It counts as biochemical. The method, then: Experiments were performed to determine whether AB129 was capable of inhibiting the Src family kinase, Fyn. […] Such a compound would serve as a test compound for determining the importance of dual inhibition of CBR1 and protein kinases.

In data set [2] the test system is adenocarcinoma cells. Put plainly: Killing of adenocarcinoma cells in culture. It counts as cell-based. The source says:
In order to verify this assumption, the pyrazolopyrimidine RB2 and the analogous pyrrolopyrimidine RB5 were synthesized (FIG. 37). These compounds employ an R^2 isopropyl as opposed to the AB129 t-butyl because the Mitsunobu reaction used for RB5 synthesis is not amenable to t-butyl alkylation.

Data set [3] concerns the target T1, carbonyl reductase 1 (CBR1) (Homo sapiens, UniProt P16152).
T1 sequence (P16152 1-277): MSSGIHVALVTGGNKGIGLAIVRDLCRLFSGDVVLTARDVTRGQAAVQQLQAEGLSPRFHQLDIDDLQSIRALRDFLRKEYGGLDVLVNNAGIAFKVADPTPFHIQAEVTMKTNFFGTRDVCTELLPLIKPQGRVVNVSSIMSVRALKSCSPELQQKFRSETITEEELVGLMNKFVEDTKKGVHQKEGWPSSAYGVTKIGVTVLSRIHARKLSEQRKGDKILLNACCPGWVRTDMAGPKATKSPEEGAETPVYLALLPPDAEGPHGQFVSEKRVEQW
Put plainly: CBR1 inhibition: menadione reduction, NADPH absorbance at 340 nm. It counts as biochemical. Also noted: 6-His (N); made in house; host or cells: E. coli. The method, then: CBR was expressed in E. coli and purified using glutathione beads; CBR has a naturally occurring. glutathione binding site. An N-terminal 6-His tagged protein was prepared to allow purification by metal affinity. Our CBR assay employs the synthetic substrate Menadione (2-methyl-1,4-naphthoquinone). Reaction progress is monitored by the decrease in NADPH-absorbance at 340 nm. Saturating concentrations of Menadione with variable concentrations of NADPH are employed in order to ascertain KI values.

Data set [4] concerns A549 lung carcinoma cells. Nature of the data set: A549 cell killing / viability.
Data set [5] concerns the target 11β-HSD1 (Homo sapiens, UniProt P28845). Particulars: Diederich et al. 2000; cited from earlier work.
Data set [6] deals with A549 lung carcinoma cells. Nature of the data set: Cell cycle of A549 cells.
Where [7] appears, read: Table 1, read-out: IC50 anti-c-Fyn-wt.
[8] abbreviates: Table 1, read-out: IC50 anti-hCBR1.

Chain of c-Fyn-wt (P06241 whole entry): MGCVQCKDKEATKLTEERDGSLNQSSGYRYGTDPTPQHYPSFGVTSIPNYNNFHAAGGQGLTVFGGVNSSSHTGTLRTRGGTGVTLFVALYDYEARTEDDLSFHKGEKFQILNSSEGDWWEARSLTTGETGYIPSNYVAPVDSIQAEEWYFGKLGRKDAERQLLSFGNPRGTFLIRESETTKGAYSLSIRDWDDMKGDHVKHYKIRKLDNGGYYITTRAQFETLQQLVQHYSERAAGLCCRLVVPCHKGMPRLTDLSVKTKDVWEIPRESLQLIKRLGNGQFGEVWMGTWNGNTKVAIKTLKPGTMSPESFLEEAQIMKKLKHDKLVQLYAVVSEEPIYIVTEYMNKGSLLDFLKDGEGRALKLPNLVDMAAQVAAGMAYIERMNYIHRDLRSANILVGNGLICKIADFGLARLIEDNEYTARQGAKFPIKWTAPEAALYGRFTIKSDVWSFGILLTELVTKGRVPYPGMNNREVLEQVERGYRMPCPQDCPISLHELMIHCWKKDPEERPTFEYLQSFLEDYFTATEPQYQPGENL
Chain of 11β-HSD1 (P28845 whole entry): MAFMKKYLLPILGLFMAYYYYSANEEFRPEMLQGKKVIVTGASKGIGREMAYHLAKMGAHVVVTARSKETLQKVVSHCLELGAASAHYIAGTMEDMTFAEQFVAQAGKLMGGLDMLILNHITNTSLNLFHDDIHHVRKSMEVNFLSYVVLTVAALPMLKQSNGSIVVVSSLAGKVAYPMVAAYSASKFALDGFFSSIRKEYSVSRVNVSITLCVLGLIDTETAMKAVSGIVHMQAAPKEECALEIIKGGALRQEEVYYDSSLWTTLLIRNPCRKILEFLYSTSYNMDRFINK

Turning to `CC(C)n1nc(-c2cccc(O)c2)c2c(N)ncnc21` [RB02], the 50% inhibitory concentration (IC50) in data set [1] (setting [7]) is 11 nM; in data set [3] (setting [8]) it was 1000 nM. Further, in data set [2], the “killing of adenocarcinoma cells in culture” value is given as “kill adenocarcinoma cells in culture”. In data set [3], the “CBR inhibition compared with AB129” value was “comparable to AB129”. Regarding `CNc1ncnc2c1c(-c1cc(C)cc(O)c1)cn2C(C)C` [SD2, 3-(7-isopropyl-4-methylamino-7H-pyrrolo[2,3-d]pyrimidin-5-yl)-5-methyl-phenol], the IC50 in data set [3] (read-out: anti-CBR IC50) worked out at 3040 nM. For `CCOCCn1nc(-c2ccccc2)c2c(N)ncnc21` [MT13], the IC50 was 5000 nM in data set [1] (setting [7]) and over 20000 nM in data set [3] (setting [8]). The matching figures for `CCOCCn1nc(-c2cccc(O)c2)c2c(N)ncnc21` [MT15]: 200 nM and 930 nM.

As to `CC(C)n1cc(-c2cc(O)cc(C(C)(C)C)c2)c2c(Cl)ncnc21` [SD7, 3-tert-butyl-5-(4-chloro-7-isopropyl-7H-pyrrolo[2,3-d]pyrimidin-5-yl)-phenol], the IC50 in data set [3] (read-out: anti-CBR IC50) is 376 nM.

Consider `CC(C)n1cc(-c2cccc(O)c2)c2c(N(Cc3ccccc3)Cc3ccccc3)ncnc21` [RB09, 3-(4-dibenzylamino-7-isopropyl-7H-pyrrolo[2,3-d]pyrimidin-5-yl)-phenol], for which the IC50 in data set [3] (setting [8]) was over 20000 nM. With `COc1cccc2c1C(=O)c1c(O)c3c(c(O)c1C2=O)C[C@@](O)(C(C)=O)C[C@@H]3O[C@H]1C[C@H](N)[C@H](O)[C@H](C)O1` [daunorubicin, reference compound], the “loss of viability of A549 cells” value in data set [4] (daunorubicin single agent, 0.8 μM) turned out to be 15%. With `CC1(C)[C@@H](O[C@H]2O[C@H](C(=O)O)[C@@H](O)[C@H](O)[C@H]2O[C@@H]2O[C@H](C(=O)O)[C@@H](O)[C@H](O)[C@H]2O)CC[C@]2(C)[C@H]3C(=O)C=C4[C@@H]5C[C@@](C)(C(=O)O)CC[C@]5(C)CC[C@@]4(C)[C@]3(C)CC[C@@H]12` [glycyrrhizic acid], the IC50 in data set [5] was 40 nM.

For `CC(C)(C)n1nc(Cc2cccc(O)c2)c2c(N)ncnc21` [RB01], the IC50 in data set [1] (setting [7]) is 1200 nM; in data set [3] (setting [8]) it was over 20000 nM.

For `CNc1ncnc2c1c(-c1cccc(N)c1)cn2C(C)C` [RB07, [5-(3-amino-phenyl)-7-isopropyl-7H-pyrrolo[2,3-d]pyrimidin-4-yl]-methyl-amine], the half-maximal inhibitory concentration (IC50) in data set [3] (setting [8]) is over 20000 nM. Take `CNc1ncnc2c1c(-c1cc(O)cc(Br)c1)cn2C(C)C` [SD1, 3-bromo-5-(7-isopropyl-4-methylamino-7H-pyrrolo[2,3-d]pyrimidin-5-yl)-phenol]: the IC50 in data set [3] (read-out: anti-CBR IC50) was 220 nM. Regarding `CC(C)(C)n1nc(-c2ccc(F)c(O)c2)c2c(N)ncnc21` [MS01], the IC50 in data set [1] (setting [7]) came out at 3 nM; in data set [3] (setting [8]), 1000 nM. In the case of `CC(C)n1cc(-c2cc(O)cc(Br)c2)c2c(Cl)ncnc21` [SD5, 3-bromo-5-(4-chloro-7-isopropyl-7H-pyrrolo[2,3-d]pyrimidin-5-yl)-phenol], the IC50 in data set [3] (setting [8]) was found to be 28 nM; in data set [3] (read-out: anti-CBR IC50), 27 nM. Turning to `Cc1cc(O)cc(-c2cn(C(C)C)c3ncnc(Cl)c23)c1` [SD6, 3-(4-chloro-7-isopropyl-7H-pyrrolo[2,3-d]pyrimidin-5-yl)-5-methyl-phenol], in data set [3] (read-out: anti-CBR IC50), the IC50 is 193 nM. Turning to `CC(C)n1cc(-c2cccc(O)c2)c2c(NCc3ccccc3)ncnc21` [RB08, 3-(4-benzylamino-7-isopropyl-7H-pyrrolo[2,3-d]pyrimidin-5-yl)-phenol], the IC50 in data set [1] (read-out: anti-Fyn IC50) is 20000 nM; in data set [3] (read-out: anti-CBR IC50), 4400 nM. Take `Cc1ccc(-c2nn(C(C)(C)C)c3ncnc(N)c23)cc1` [PP1, reference compound]: the “A549 cells in G2/M phase” value in data set [6] is “approximately 5.6%”. Moreover, the “cell killing in human lung cancer cell line A549” value (from here on “cell killing”) in data set [4] is on record as “not”. The compound also yielded an IC50 in data set [3] of over 20000 nM. Further, the “inhibition of CBR1” value in data set [3] (at a concentration as high as 16 μM) is “did not inhibit”; in data set [3] (in vitro assay, CBR1 expressed in bacteria), “does not inhibit”.

As for `CC(C)(C)n1nc(-c2cccc(N)c2)c2c(N)ncnc21` [AB060], the IC50 in data set [1] (setting [7]) is 50 nM; in data set [3] (setting [8]) it was over 20000 nM. Further, the “cell killing” value in data set [4] is listed as “mild to severe cell killing”. As for `CNc1ncnc2c1c(-c1cccc(O)c1)cn2CCC(=O)OC(C)(C)C` [RB10, tert-Butyl 3-(5-(3-hydroxyphenyl)-4-(methylamino)-4aH-pyrrolo[2,3-d]pyrimidin-7(7aH)-yl)propanoate], in data set [3] (read-out: anti-CBR IC50), the IC50 was found to be 1150 nM. On to `CC(C)n1cc(-c2cccc(O)c2)c2c(N)ncnc21` [RB05, 3-(4-amino-7-isopropyl-7H-pyrrolo[2,3-d]pyrimidin-5-yl)-phenol], for which the IC50 in data set [1] (setting [7]) came to 12 nM; in data set [3] (setting [8]), 760 nM. For the same compound, the “killing of adenocarcinoma cells in culture” value in data set [2] is “kill adenocarcinoma cells in culture”. Moreover, the “CBR inhibition compared with AB129” value in data set [3] is listed as “comparable to AB129”. Regarding `CC(C)(C)n1nc(-c2ccccc2)c2c(N)ncnc21` [AB001], the IC50 was 110 nM in data set [1] (setting [7]) and over 20000 nM in data set [3] (setting [8]). As to `CNc1ncnc2c1c(-c1cccc(O)c1)cn2CCC(=O)O` [RB11, 3-(5-(3-hydroxyphenyl)-4-(methylamino)-4aH-pyrrolo[2,3-d]pyrimidin-7(7aH)-yl)propanoic acid], in data set [3] (read-out: anti-CBR IC50), the IC50 is 220 nM. On to `CC(C)(C)n1nc(Cc2ccc(O)cc2)c2c(N)ncnc21` [RB03], for which the figures for the IC50 in data set [1] (setting [7]) and in data set [3] (setting [8]) were about 20000 nM and over 20000 nM, respectively. Take `CC(C)(C)n1nc(-c2ccc(N)cc2)c2c(N)ncnc21` [AB061]: the figures for the IC50 in data set [1] (setting [7]) and in data set [3] (setting [8]) were 50 nM and over 20000 nM, respectively. Besides, the “cell killing” value in data set [4] is “mild to severe cell killing”. Turning to `CC(C)(C)n1nc(Cc2ccccc2O)c2c(N)ncnc21` [RB04], the half-inhibitory concentration (IC50) in data set [1] (setting [7]) is 120 nM; in data set [3] (setting [8]) it was over 20000 nM. On to `CNc1ncnc2c1c(-c1cc(O)cc(C(F)(F)F)c1)cn2C(C)C` [SD4, 3-(7-Isopropyl-4-methylamino-7H-pyrrolo[2,3-d]pyrimidin-5-yl)-5-trifluoromethyl-phenol], for which the IC50 in data set [3] (read-out: anti-CBR IC50) was 416 nM. Regarding `CNc1ncnc2c1c(-c1cccc(O)c1)cn2C(C)C` [RB06], the IC50 in data set [1] (setting [7]) stood at 70000 nM; in data set [3] (setting [8]), 590 nM. In data set [1] (predicted, versus AB129), the “fold less potent as an inhibitor of Fyn” value was over 100 fold. Moreover, in data set [3], the “CBR inhibition compared with AB129” value was “equipotent”.

As to `CNc1ncnc2c1c(-c1cc(O)cc(C(C)(C)C)c1)cn2C(C)C` [SD3, 3-tert-Butyl-5-(7-isopropyl-4-methylamino-7H-pyrrolo[2,3-d]pyrimidin-5-yl)-phenol], the half-maximal inhibitory concentration (IC50) in data set [3] (read-out: anti-CBR IC50) was determined as 7650 nM. On the same count and under the same terms, to `CC(C)n1cc(-c2cc(O)cc(C(F)(F)F)c2)c2c(Cl)ncnc21` [SD8, 3-(4-Chloro-7-isopropyl-7H-pyrrolo[2,3-d]pyrimidin-5-yl)-5-trifluoromethyl-phenol] belongs 67 nM.
